Activity calls are given as the source filed them.
How the values were obtained:
[1] = target: Tyrosyl-DNA phosphodiesterase 2 (Homo sapiens, UniProt O95551); assay: potency against TDP2 phosphodiesterase activity – biochemical, epi absorbance, IC50, dose response (AID 743297)
Hexokinase HKDC1 = target: T1, Hexokinase HKDC1 (Homo sapiens, UniProt Q2TB90); assay: inhibition of HKDC1 glucose phosphorylation – biochemical, W721R variant, dose response (AID 504729); assay type: functional
T1 sequence (Q2TB90 whole entry): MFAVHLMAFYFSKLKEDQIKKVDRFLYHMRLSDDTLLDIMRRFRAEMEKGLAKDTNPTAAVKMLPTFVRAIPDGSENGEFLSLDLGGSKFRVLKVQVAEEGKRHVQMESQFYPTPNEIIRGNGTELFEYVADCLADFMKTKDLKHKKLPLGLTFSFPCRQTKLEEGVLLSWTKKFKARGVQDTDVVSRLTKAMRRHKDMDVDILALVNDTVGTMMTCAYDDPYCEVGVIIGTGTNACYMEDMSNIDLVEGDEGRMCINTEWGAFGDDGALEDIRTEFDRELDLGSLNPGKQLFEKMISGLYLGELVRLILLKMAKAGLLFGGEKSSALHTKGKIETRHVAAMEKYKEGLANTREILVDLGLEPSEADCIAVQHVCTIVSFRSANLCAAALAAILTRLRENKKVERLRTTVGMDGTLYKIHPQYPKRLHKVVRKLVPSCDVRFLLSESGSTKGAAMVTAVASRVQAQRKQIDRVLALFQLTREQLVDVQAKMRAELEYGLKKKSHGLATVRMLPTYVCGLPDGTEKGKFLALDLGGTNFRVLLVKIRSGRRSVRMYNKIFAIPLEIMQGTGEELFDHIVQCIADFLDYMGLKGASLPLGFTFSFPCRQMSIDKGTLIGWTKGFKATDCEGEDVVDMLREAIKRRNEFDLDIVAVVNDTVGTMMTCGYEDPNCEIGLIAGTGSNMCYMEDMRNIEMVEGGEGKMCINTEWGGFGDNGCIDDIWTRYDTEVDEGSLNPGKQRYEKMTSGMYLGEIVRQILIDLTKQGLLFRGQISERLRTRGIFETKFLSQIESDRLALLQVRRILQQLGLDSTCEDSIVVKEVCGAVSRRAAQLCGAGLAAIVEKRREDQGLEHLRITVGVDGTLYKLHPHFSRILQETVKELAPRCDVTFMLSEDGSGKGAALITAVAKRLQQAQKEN

Genome polyprotein = Genome polyprotein (dengue virus type 2, UniProt P29990); assay: flavivirus cap methylation enzyme inhibition – biochemical, confirmation dose response, primary screen (AID 588689); assay type: functional
Sequence of Genome polyprotein (P29990 2492-3391 limits assumed): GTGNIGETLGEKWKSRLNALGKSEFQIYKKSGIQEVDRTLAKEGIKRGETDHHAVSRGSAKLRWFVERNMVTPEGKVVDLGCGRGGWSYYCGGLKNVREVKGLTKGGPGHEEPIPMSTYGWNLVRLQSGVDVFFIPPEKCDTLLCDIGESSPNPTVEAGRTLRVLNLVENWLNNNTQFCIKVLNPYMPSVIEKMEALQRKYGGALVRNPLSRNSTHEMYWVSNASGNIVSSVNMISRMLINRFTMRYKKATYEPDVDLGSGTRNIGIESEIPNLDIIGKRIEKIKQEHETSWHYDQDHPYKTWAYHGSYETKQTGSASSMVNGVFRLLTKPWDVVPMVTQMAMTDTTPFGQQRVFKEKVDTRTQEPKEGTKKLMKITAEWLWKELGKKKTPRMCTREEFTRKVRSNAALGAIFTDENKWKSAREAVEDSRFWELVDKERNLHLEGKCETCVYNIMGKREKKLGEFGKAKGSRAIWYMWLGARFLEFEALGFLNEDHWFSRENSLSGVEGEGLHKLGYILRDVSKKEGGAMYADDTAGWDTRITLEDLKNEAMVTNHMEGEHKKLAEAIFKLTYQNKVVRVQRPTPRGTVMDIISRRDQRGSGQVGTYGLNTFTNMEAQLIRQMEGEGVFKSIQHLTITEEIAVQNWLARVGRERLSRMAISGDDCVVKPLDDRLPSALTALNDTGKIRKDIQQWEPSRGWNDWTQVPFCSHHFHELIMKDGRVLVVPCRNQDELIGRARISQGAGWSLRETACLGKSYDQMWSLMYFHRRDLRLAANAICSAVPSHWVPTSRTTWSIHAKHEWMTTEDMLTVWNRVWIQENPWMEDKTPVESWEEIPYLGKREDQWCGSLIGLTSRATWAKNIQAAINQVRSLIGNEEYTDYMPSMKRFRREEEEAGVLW

HEK293 [2] = assay: cells; assay type: functional, cell-based; conditions: Homo sapiens
HEK293 [3] = assay: cells; assay type: functional, cell-based; conditions: Homo sapiens; remark: listed apart in the source
Albumin = Albumin (Bos taurus, UniProt P02769); assay: Counterscreen for inhibitors of T-cell receptor (TCR)-CD3 interaction: Fluorescence-based biochemical high throughput dose response assay to identify inhibitors of T-cell receptor (TCR)-CD3 interaction using a TAMRA-labeled BSA probe.; assay type: functional
Sequence of Albumin (P02769 whole entry, the tested form may be a part): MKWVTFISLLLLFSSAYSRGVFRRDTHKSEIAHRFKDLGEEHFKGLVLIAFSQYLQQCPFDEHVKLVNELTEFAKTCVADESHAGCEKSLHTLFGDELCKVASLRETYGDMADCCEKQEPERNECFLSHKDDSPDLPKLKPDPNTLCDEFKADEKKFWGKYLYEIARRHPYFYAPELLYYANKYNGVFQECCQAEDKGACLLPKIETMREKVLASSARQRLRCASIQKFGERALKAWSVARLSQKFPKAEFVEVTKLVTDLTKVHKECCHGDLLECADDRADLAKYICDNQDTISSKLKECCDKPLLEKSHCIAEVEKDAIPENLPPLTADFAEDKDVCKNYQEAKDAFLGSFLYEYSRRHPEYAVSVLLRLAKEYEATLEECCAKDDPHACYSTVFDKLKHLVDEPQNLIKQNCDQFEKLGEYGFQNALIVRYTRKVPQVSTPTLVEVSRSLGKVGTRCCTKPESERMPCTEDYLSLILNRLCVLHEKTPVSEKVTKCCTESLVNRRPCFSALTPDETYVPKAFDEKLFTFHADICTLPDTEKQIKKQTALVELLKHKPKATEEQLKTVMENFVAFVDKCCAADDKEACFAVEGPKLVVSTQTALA

[4] = target: Nucleotide-binding oligomerization domain-containing protein 2 (Homo sapiens, UniProt Q9HC29); assay: inhibition of NOD2-driven NF-kB reporter – cell-based, luminescence, uHTS, HEK293 (AID 1566); assay type: functional
Sequence of Nucleotide-binding oligomerization domain-containing protein 2 (Q9HC29 whole entry, the tested form may be a part): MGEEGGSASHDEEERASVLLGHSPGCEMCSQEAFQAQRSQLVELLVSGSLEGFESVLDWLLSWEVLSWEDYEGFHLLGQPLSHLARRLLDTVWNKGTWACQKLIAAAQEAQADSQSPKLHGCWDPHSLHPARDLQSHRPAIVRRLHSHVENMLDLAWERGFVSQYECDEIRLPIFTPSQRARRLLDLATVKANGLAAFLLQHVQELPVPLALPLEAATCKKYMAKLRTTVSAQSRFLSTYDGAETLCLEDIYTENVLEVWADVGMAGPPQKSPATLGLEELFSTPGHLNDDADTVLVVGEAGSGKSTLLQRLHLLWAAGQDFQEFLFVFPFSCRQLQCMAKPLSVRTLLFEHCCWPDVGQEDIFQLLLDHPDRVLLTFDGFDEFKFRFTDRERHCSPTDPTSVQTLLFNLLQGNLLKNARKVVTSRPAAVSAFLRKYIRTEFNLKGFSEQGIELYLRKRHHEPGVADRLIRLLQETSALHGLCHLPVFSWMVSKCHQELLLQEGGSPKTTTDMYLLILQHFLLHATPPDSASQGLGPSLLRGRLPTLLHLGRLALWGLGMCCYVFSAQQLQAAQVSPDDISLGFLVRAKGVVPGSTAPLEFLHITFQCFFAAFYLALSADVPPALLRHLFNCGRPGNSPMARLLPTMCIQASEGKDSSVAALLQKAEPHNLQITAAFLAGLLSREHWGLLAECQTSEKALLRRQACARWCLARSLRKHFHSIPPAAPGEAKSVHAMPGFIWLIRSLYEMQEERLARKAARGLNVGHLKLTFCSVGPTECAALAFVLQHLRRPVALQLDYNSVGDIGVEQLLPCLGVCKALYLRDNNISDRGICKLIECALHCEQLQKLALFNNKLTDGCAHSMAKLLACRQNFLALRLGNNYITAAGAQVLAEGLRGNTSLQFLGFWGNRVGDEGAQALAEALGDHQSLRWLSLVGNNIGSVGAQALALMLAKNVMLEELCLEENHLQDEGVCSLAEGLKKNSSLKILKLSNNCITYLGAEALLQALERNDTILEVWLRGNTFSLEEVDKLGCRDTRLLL

HEK293 [5] = assay: inhibition of NOD1-driven NF-kB reporter – cell-based, luminescence, uHTS, primary screen (AID 1578); assay type: functional; conditions: Homo sapiens
HEK293 [6] = assay: cells; assay type: functional, cell-based; conditions: Homo sapiens; remark: listed apart in the source
HEK293 [7] = assay: NOD2 signaling inhibitors in MDP-stimulated cells, cell-based, uHTS, luminescence (AID 2001); assay type: functional; conditions: Homo sapiens
[8] = general mammalian cell viability loss – activator set, cherry-pick, cytotoxicity control for miR-122 modulator project, dose response (AID 720690); assay type: functional, cell-based;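 also: HEK293T human cells scored for general mammalian cytotoxicity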
A549 = assay: viability loss in A549 cells – cell-based, plate reader, cherry-pick samples, cytotoxicity control, dose response (AID 687028); assay type: functional; conditions: Homo sapiens
Vero [9] = assay: viability loss in Vero cells – cell-based, plate reader, cherry-pick samples, cytotoxicity control, dose response (AID 687020); assay type: functional; conditions: Chlorocebus sabaeus
[10] = target: Tyrosine-protein phosphatase non-receptor type 5 (Homo sapiens, UniProt P54829); assay: PTPN5 enzyme inhibition – biochemical, fluorescence intensity, uHTS hits, confirmation (AID 602372); assay type: functional; conditions: read-out: IC50_Mean
Sequence of Tyrosine-protein phosphatase non-receptor type 5 (P54829 whole entry): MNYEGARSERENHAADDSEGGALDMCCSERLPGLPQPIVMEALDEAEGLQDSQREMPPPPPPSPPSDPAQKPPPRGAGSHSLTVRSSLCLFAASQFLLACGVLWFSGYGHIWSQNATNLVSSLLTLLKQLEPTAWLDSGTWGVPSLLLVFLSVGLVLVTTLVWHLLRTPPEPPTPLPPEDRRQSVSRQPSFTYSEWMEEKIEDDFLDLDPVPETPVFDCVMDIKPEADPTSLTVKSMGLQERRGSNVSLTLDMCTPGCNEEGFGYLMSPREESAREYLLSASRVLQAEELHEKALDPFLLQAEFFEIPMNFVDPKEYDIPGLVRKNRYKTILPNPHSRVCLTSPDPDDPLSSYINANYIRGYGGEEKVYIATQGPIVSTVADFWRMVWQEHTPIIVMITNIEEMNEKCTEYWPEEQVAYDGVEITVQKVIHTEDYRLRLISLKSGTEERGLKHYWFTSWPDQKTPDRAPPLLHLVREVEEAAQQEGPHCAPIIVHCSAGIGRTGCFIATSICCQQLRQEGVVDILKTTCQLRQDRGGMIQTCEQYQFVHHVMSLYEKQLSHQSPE

[11] = target: Tyrosine-protein phosphatase non-receptor type 11 (Homo sapiens, UniProt Q06124); assay: PTPN11 enzyme inhibitors – biochemical, selectivity assay for STEP inhibitor project, dose response (AID 602367); assay type: functional; conditions: read-out: IC50_Mean
Sequence of Tyrosine-protein phosphatase non-receptor type 11 (Q06124 whole entry): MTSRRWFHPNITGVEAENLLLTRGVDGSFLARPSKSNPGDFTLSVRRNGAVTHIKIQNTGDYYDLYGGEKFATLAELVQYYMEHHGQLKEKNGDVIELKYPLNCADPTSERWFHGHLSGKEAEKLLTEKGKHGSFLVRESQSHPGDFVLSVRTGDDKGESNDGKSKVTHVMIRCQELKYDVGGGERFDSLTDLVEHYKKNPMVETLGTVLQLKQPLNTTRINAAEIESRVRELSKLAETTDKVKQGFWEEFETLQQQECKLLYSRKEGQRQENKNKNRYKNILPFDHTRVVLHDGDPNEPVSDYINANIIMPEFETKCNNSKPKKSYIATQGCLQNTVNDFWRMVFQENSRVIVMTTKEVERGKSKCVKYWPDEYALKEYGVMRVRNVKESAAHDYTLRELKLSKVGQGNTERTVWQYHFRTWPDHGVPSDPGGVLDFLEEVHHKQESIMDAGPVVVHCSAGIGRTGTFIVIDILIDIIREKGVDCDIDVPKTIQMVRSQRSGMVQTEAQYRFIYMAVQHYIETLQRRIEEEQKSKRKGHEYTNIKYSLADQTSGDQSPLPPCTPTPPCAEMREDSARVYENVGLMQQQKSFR

[12] = target: T2, Tyrosine-protein phosphatase non-receptor type 22 (Homo sapiens, UniProt Q9Y2R2); assay: lymphoid phosphatase LYP inhibitors – biochemical, selectivity assay for STEP inhibitor project, dose response (AID 624241); assay type: functional
T2 sequence (Q9Y2R2 whole entry): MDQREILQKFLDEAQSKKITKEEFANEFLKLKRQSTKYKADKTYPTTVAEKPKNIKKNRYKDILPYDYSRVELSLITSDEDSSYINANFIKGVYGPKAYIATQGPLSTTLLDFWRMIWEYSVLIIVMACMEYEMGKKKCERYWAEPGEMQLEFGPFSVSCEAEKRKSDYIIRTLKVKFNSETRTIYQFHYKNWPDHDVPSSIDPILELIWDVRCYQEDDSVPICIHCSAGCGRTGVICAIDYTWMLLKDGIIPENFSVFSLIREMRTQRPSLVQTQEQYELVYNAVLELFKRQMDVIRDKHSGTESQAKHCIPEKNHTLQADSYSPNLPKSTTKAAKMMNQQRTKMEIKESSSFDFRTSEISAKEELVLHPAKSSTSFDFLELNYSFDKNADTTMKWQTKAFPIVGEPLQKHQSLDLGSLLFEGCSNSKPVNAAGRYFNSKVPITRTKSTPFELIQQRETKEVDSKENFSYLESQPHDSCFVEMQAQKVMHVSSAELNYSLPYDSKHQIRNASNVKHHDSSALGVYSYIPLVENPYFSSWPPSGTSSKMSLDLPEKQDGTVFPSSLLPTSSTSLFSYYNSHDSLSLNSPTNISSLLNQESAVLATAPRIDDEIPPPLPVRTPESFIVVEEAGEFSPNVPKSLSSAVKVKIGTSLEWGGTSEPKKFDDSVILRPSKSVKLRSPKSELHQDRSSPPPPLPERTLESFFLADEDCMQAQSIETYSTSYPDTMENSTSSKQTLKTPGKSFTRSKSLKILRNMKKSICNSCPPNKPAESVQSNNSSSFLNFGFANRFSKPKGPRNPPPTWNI

[13] = target: T3, Low molecular weight phosphotyrosine protein phosphatase (Homo sapiens, UniProt P24666); assay type: functional; conditions: read-out: IC50_Mean;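 also: Dose-response confirmation assay measuring inhibition of LMPTP enzyme activity by fluorescence intensity read-out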
T3 sequence (P24666 whole entry): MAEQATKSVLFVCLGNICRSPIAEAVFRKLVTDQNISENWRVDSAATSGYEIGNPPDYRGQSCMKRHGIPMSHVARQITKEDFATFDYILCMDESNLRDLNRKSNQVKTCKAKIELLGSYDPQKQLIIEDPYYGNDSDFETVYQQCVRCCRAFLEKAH

[14] = target: T4, Carboxy-terminal domain RNA polymerase II polypeptide A small phosphatase 1 (Homo sapiens, UniProt Q9GZU7); assay: CTDSP1 inhibitors, concentration-response, biochemical, absorbance readout, ultra-high-throughput screen actives (AID 540297); assay type: functional
T4 sequence (Q9GZU7 whole entry): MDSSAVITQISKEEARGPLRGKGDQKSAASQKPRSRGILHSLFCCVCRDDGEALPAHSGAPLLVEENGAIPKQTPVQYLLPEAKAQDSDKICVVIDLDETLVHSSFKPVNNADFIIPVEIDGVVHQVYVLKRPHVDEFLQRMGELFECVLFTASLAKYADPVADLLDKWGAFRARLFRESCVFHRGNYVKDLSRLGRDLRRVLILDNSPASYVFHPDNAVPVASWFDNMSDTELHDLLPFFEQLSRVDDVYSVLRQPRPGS

[15] = target: Dual specificity protein phosphatase 3 (Homo sapiens, UniProt P51452); assay: VHR phosphatase inhibition, dose response, selectivity assay for STEP inhibitor project, biochemical (AID 602374); assay type: functional; conditions: read-out: IC50_Mean
Sequence of Dual specificity protein phosphatase 3 (P51452 whole entry): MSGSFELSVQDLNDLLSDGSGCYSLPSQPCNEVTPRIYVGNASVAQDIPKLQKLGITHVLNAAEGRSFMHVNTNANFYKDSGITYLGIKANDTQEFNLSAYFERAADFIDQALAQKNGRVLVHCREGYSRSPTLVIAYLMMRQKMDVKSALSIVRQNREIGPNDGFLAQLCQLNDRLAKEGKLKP

Vero [16] = assay: cells; assay type: functional; conditions: Chlorocebus sabaeus
BHK-21 = assay: viability loss in BHK-21 cells – cell-based, plate reader, cherry-pick samples, cytotoxicity control, dose response (AID 687030); assay type: functional; conditions: Mesocricetus auratus

Sequence of Tyrosyl-DNA phosphodiesterase 2 (O95551 whole entry): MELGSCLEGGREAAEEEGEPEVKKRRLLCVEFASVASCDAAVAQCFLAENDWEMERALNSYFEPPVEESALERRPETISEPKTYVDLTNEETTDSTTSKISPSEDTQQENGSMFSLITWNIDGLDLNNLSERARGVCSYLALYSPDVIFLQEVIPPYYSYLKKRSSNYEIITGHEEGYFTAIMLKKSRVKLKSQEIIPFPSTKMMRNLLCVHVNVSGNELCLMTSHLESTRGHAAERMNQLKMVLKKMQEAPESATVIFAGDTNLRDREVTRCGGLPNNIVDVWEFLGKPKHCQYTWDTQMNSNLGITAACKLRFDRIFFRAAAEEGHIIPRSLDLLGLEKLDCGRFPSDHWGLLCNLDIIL

## O=S(=O)(Nc1ccc(O)c2ccccc12)c1cccs1
[1]
  IC50: > 128 µM (inactive)
Hexokinase HKDC1
  IC50: 9.75 µM (active)
Genome polyprotein
  IC50: 62.6 µM (active)

## O=C(CNC(=O)c1cccc(Br)c1)N/N=C/c1cc(Br)cc(Br)c1O
HEK293 [2]
  IC50: > 20 µM (inactive)
HEK293 [3]
  IC50: > 20 µM (inactive)
Albumin
  IC50: > 94.1 µM (inactive)
[4]
  EC50: > 20 µM (inactive)
HEK293 [5]
  EC50: > 20 µM (inactive)
HEK293 [6]
  IC50: 19.4 µM (active)
HEK293 [7]
  IC50: > 20 µM (inactive)

## COc1cccc(S(=O)(=O)N(C)C[C@@H]2Oc3cc(C4=CCCCC4)ccc3S(=O)(=O)N([C@H](C)CO)C[C@@H]2C)c1
[8]
  AC50: 25.1 µM (active)

## Cc1ccc(C(C)C)c(OCCNC(=O)c2ccccc2O)c1
A549
  AC50: 2.13 µM (active)
Vero [9]
  AC50: 1.45 µM (active)

## NC(=O)c1cc2ccccc2o/c1=N\NC(=O)c1ccccc1O
[10]
  IC50: 6.57 µM (active)
[11]
  IC50: 5.39 µM (active)
[12]
  IC50: 90.7 µM (inactive)
[13]
  IC50: 24.2 µM (inactive)
[14]
  IC50: 7.89 µM (active)
[15]
  IC50: 1.93 µM (active)

## CN(C)CCCN1c2ccccc2Sc2ccc3ccccc3c21
Vero [16]
  CC50: 16.2 µM (active)
BHK-21
  AC50: 36 µM (active)
